“And” between values parts separate entries of the source, which are not always exact repeats. Equal values may be shown once.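 Results reflect a 48-hour exposure of cells in 96-well plates to compound at five concentrations. Abbreviation: GI50, concentration required for 50% inhibition of growth. TGI is the concentration that stops growth completely.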
Key:
Assay in all cases: NCI-60 cell line screen, 48 h
HOP-62 NSCLC = system: HOP-62 NSCLC
U251 CNS = system: U251 CNS
SK-MEL-28 melanoma = system: SK-MEL-28 melanoma
HCT-15 colon = system: HCT-15 colon
HL-60(TB) leukemia = system: HL-60(TB) leukemia
TK-10 renal = system: TK-10 renal
MOLT-4 leukemia = system: MOLT-4 leukemia
NCI-H460 lung = system: NCI-H460 lung
NCI-H23 lung = system: NCI-H23 lung
NCI/ADR-RES ovarian = system: NCI/ADR-RES ovarian

Row | SMILES | TGI (HOP-62 NSCLC) | TGI (U251 CNS) [µM] | TGI (SK-MEL-28 melanoma) [µM] | TGI (HCT-15 colon) [µM] | TGI (HL-60(TB) leukemia) [µM] | TGI (TK-10 renal) | TGI (MOLT-4 leukemia) | TGI (NCI-H460 lung) [µM] | TGI (NCI-H23 lung) [µM] | TGI (NCI/ADR-RES ovarian) [µM] | GI50 (SK-MEL-28 melanoma) [µM] | GI50 (MOLT-4 leukemia) [µM] | GI50 (NCI-H460 lung) [µM] | GI50 (TK-10 renal) [µM]
1 | CC(C)(C)c1cc(CCC(=O)Nc2ccc(Cl)cc2)[nH]c(=S)n1 | > 100 µM | > 100 | > 100 | > 100 | > 100 | > 100 µM | > 100 µM | > 100 | > 100 |  |  |  |  | 
2 | O=C1NC2NC3NC(=O)NC3NC2N1 (stereo not drawn) | > 100 µM | > 100 | > 100 |  | > 100 |  | > 100 µM |  | > 100 | > 100 |  |  |  | 
3 | Cc1ccc(C(=O)CC2(O)C(=O)Nc3c(C)cc(Cl)cc32)cc1 (stereo not drawn) | > 100 µM | > 100 | > 100 | > 100 | > 100 | > 100 µM | > 100 µM | > 100 | > 100 |  |  |  |  | 
4 | O=C(Cc1ccccc1)NN1C(=O)C(Cl)C1c1ccccc1Cl (stereo not drawn) | > 100 µM | > 100 | > 100 | > 100 | > 100 | > 100 µM | 62.8 µM | > 100 | > 100 |  |  |  |  | 
5 | CCOc1ccccc1N=Nc1ccc2oc(=O)c(C(C)=O)cc2c1 | > 100 µM | > 100 | > 100 | > 100 | > 100 | > 100 µM | > 100 µM |  | > 100 |  |  |  |  | 
6 | COc1ccccc1NC(=O)C1=C(C)NC(C)=C(C(=O)Nc2ccccc2OC)C1c1ccccc1[N+](=O)[O-] | 88.2 µM | 29.7 | 33.9 | 27.5 | 45.3 | 59.2 µM | 49.5 µM | 32.8 | 43.6 |  |  |  |  | 
7 | COC(=O)C1CC2C=CC=CC(=O)C2(C)C1 (stereo not drawn) | > 100 µM | > 100 |  | > 100 | 55.1 | > 100 µM | > 100 µM | > 100 | > 100 |  |  |  |  | 
8 | COc1ccc(N2C(=O)c3c(c4[nH]c5ccccc5c4c4ccc(C(C)(C)C)cc34)C2=O)cc1 | > 100 µM | 42.7 | > 100 | > 100 |  | > 100 µM | 52 µM | > 100 | 51 |  |  |  |  | 
9 | O=Cc1c[nH]c2c(=O)[nH]cnc12 | > 100 µM |  | > 100 | > 100 | > 100 | > 100 µM | > 100 µM |  | > 100 |  |  |  |  | 
10 | O=c1[nH]/c(=C/c2ccc3c(c2)OCO3)c(=O)[nH]/c1=C/c1ccc2c(c1)OCO2 | > 10 µM | > 10 | > 10 | > 10 |  | > 10 µM | > 10 µM | > 10 | > 10 | > 10 |  |  |  | 
11 | Clc1ccc(Nc2nnc(CNc3ccc(-c4nnc(Nc5ccc(Cl)cc5)s4)cc3)s2)cc1 | > 100 µM | > 100 | > 100 | > 100 |  | > 100 µM | > 100 µM | > 100 | > 100 | > 100 |  |  |  | 
12 | CC1=CC2C(C=C1)S(=O)(=O)N1CC21c1ccccc1 (stereo not drawn) | > 100 µM | > 100 | > 100 | > 100 | > 100 | > 100 µM |  | > 100 | > 100 |  |  |  |  | 
13 | COc1cc2ccc3c4ccccc4cnc3c2cc1OC | > 100 µM | > 100 | > 100 | > 100 | > 100 | > 100 µM | > 100 µM | > 100 | > 100 |  |  |  |  | 
14 | O=C1[C@@H]2C(c3ccc(Br)cc3)=NO[C@@H]2C(=O)N1c1ccc(Cc2ccc(N3C(=O)[C@H]4C(c5ccc(Br)cc5)=NO[C@H]4C3=O)cc2)cc1 | > 3.48 µM | > 3.48 | > 40 | > 40 | > 3.48 | > 40 µM | > 40 µM | > 40 | > 3.48 |  | > 40 | > 40 | > 40 | 
15 | N#CC(NNC(=O)Cc1ccccc1)c1cccc(O)c1 (stereo not drawn) | > 100 µM | > 100 | > 100 | > 100 | > 100 | > 100 µM | > 100 µM | > 100 | > 100 |  |  |  |  | 
16 | COc1ccc2[nH]c3c(c2c1)[C@H](c1ccccc1)C[C@@H]1C(=O)N(c2ccccc2)C(=O)[C@H]31 | 48.8 µM | 38.3 | > 100 | > 100 |  | > 100 µM | 31.5 µM | 84.1 |  |  |  |  |  | 
17 | CC1(C)OC(=O)C(C)(C)C(=O)O1 | > 100 µM | > 100 | > 100 | > 100 |  | > 100 µM | > 100 µM | > 100 | > 100 | > 100 |  |  |  | 
18 | COc1cc2c(c(OC)c1OC)-c1ccc(SC)c(=O)cc1[C@@H](NCc1ccc(F)cc1)CC2 | 75 µM and 20.6 µM |  | 75 | 7.64 | > 100 | 75 µM and > 100 µM | 75 µM and > 100 µM |  |  |  |  |  |  | 0.182
